According to paper PMC11667158, “Flexible fluorine-thiol displacement stapled peptides with enhanced membrane penetration for the estrogen receptor/coactivator interaction” (The Journal of Biological Chemistry, 2024):

Assays:
MCF-7 ER + cells = assay: Soft agar colony formation assay (anchorage independent growth); type: cell-based; conditions: MCF-7, E2 1 nM, peptide 20 μM, 14 to 18 days
Procedure: Figure 6 Soft agar colony formation assay. (A) soft agar average colony size and (B) average colony formation in MCF-7 ER + cells assessed in the presence of vehicle (EtOH), E2 (1 nM), and the indicated peptide treatments (WT, LL, or LD) at 20 μM. Graphed data represent the mean ± SD (n = 6). An ordinary one-way ANOVA was used to assess statistical significance where ‘∗’ indicates p < 0.05, ‘∗∗’ indicates p < 0.01, ‘∗∗∗’ indicates p < 0.001. ER, estrogen receptor.
Cells were seeded (1.5 × 10^4 cells/well) in 1X sterile low melt agarose (Life Technologies) containing 5% dextran-coated charcoal and the appropriate treatment. Soft agar assays were allowed to proceed for 14 to 18 days at 37 °C. Afterward, cell colonies were stained with 0.005% crystal violet in PBS. Colony number and colony size were analyzed with ImageJ (Wayne Rasband, National Institutes of Health, http://rsbweb.nih.gov/ij/). Data are presented as the average ± SD of six independent measurements.

[1] = Circular dichroism, percent α helicity; type: physicochemical; conditions: CD, 222 nm MRE, 50 μM peptide, room temperature
Excerpt: CD spectra were obtained using a J-815 CD spectrometer (Jasco) using the wavelength range of 190 to 260 nm. Spectra were collected in a 10 mm quartz cuvette and each spectrum represents the accumulation of three solvent-blank subtracted runs. Data were collected using the following system parameters: bandwidth of 1.00 nm, digital integration time of 2 s, pitch of 1.0 nm, and a scan speed of 50 nm/min. Data underwent minimal adaptive smoothing, and all the related spectra were taken at room temperature under inert nitrogen flow. Peptides were solubilized to 50 μM in either Milli-Q water, 45 mM sodium phosphate buffer (pH 7.4), 30 mM SDS (pH 7.4), or 50% (v/v) TFE. Percentage of α helicity was calculated based on the ellipticity value at 222 nm as done previously ([25], [63]), following the equation α helicity (%)=([ϴ]obs222-[ϴ]0)/([ϴ]max222-[ϴ]0) where [ϴ]max222 = (−44,000 + 250T) (1-x/n), [ϴ]0 = […], T = 20 °C, x = 3, n = number of residues ([25], [63]).

[2] = target: SRC2-LL, FTDR-stapled, FITC-labelled; assay: fluorescence polarisation; saturation fluorescence anisotropy; ERα-LBD serially diluted to 0.4-7500 nM with 17β-estradiol at four equivalents to ERα; FITC-peptide 50 nM; 10 mM Hepes pH 7.4, 50 mM EDTA, 150 mM NaCl, 0.005% Tween-20; 96-well plates
[3] = target: SRC2-LD, FTDR-stapled, FITC-labelled; assay: as above

Substance | downregulation of colony size compared to the vehicle (MCF-7 ER + cells) [%] | average colony size (MCF-7 ER + cells; n = 6) | α-helicity (%) ([1]; 30 mM SDS micellar solution, pH 7.4) | α-helicity (%) ([1]; 45 mM sodium phosphate buffer, pH 7.4) | α-helicity (%) ([1]; 50% (v/v) TFE in water, pH 7.4) | α-helicity (%) ([1]; Water) | fold increase in Kd against SRC2-RCM [2] [fold] | fold increase in Kd against SRC2-RCM [3] [fold]
HKILHRLLQDS [SRC2-WT] | 19 | 10,193 μm^2 | 57.9 | 17 | 84 | 12.8 | – | –
estrogen receptor α ligand-binding domain (domain or fragment) | – | – | – | – | – | – | 1.5 | 1.2
